Source: ChEMBL document CHEMBL1153480, “Study on the potential anti-cancer activity of phosphonium and ammonium-based ionic liquids” (2009)

Tests used:
Format in all cases: functional
KM12 [1] = test: cells; conditions: Homo sapiens
Description: Growth inhibition of human KM12 cells assessed as cell growth at 10 uM by SRB assay

SW-620 [2] = test: cells; conditions: Homo sapiens
Description: Growth inhibition of human SW620 cells assessed as drug level required for 50% reduction in net protein increase by SRB assay relative to control

OVCAR-5 = test: cells; conditions: Homo sapiens
Description: Growth inhibition of human OVCAR5 cells assessed as cell growth at 10 uM by SRB assay

MDA-MB-435 = test: Cytotoxicity against human MDA-MB-435 cells by SRB assay; conditions: read-out: LC50 (the source's name)
HT-29 = test: Cytotoxicity against human HT-29 cells by SRB assay; conditions: read-out: LC50 (the source's name)
COLO 205 [3] = test: cells; conditions: Homo sapiens
Description: Growth inhibition of human COLO205 cells assessed as drug level required for 50% reduction in net protein increase by SRB assay relative to control

Malme-3M [4] = test: cells; conditions: Homo sapiens
Description: Growth inhibition of human MALME-3M cells assessed as cell growth at 10 uM by SRB assay

SK-MEL-5 = test: cells; conditions: Homo sapiens
Description: Growth inhibition of human SK-MEL-5 cells assessed as cell growth at 10 uM by SRB assay

SNB-19 [5] = test: Cytotoxicity against human SNB19 cells by SRB assay; conditions: read-out: LC50 (the source's name)
MOLT-4 = test: cells; conditions: Homo sapiens
Description: Growth inhibition of human MOLT4 cells assessed as cell growth at 10 uM by SRB assay

RPMI-8226 = test: cells; conditions: Homo sapiens
Description: Growth inhibition of human RPMI8226 cells assessed as cell growth at 10 uM by SRB assay

SR [6] = test: Cytotoxicity against human SR cells by SRB assay; conditions: read-out: LC50 (the source's name)
RXF 393 = test: cells; conditions: Homo sapiens
Description: Growth inhibition of human RFX393 cells assessed as drug level required for 50% reduction in net protein increase by SRB assay relative to control

UO-31 [7] = test: cells; conditions: Homo sapiens
Description: Growth inhibition of human UO31 cells assessed as cell growth at 10 uM by SRB assay

SF-268 [8] = test: cells; conditions: Homo sapiens
Description: Growth inhibition of human SF268 cells assessed as drug level required for 50% reduction in net protein increase by SRB assay relative to control

SK-MEL-2 [9] = test: cells; conditions: Homo sapiens
Description: Growth inhibition of human SK-MEL-2 cells assessed as cell growth at 10 uM by SRB assay

COLO 205 [10] = test: cells; conditions: Homo sapiens; remark: listed apart in the source
Description: Growth inhibition of human COLO205 cells assessed as cell growth at 10 uM by SRB assay

SF-539 = test: cells; conditions: Homo sapiens
Description: Growth inhibition of human SF539 cells assessed as drug level required for 50% reduction in net protein increase by SRB assay relative to control

OVCAR-3 [11] = test: cells; conditions: Homo sapiens
Description: Growth inhibition of human OVCAR-3 cells assessed as cell growth at 10 uM by SRB assay

SF-268 [12] = test: Cytotoxicity against human SF268 cells by SRB assay; conditions: read-out: LC50 (the source's name)
OVCAR-4 [13] = test: Cytotoxicity against human OVCAR4 cells by SRB assay; conditions: read-out: LC50 (the source's name)
HOP-92 = test: cells; conditions: Homo sapiens
Description: Growth inhibition of human HOP92 cells assessed as drug level required for 50% reduction in net protein increase by SRB assay relative to control

OVCAR-4 [14] = test: cells; conditions: Homo sapiens
Description: Growth inhibition of human OVCAR4 cells assessed as cell growth at 10 uM by SRB assay

Malme-3M [15] = test: Cytotoxicity against human MALME-3M cells by SRB assay; conditions: read-out: LC50 (the source's name)
UO-31 [16] = test: cells; conditions: Homo sapiens; remark: listed apart in the source
Description: Growth inhibition of human UO31 cells assessed as drug level required for 50% reduction in net protein increase by SRB assay relative to control

HOP-62 [17] = test: cells; conditions: Homo sapiens
Description: Growth inhibition of human HOP62 cells assessed as cell growth at 10 uM by SRB assay

A498 = test: cells; conditions: Homo sapiens
Description: Growth inhibition of human A498 cells assessed as drug level required for 50% reduction in net protein increase by SRB assay relative to control

HL-60(TB) [18] = test: cells; conditions: Homo sapiens
Description: Growth inhibition of human HL-60(TB) cells assessed as drug level required for 50% reduction in net protein increase by SRB assay relative to control

M14 = test: cells; conditions: Homo sapiens
Description: Growth inhibition of human M14 cells assessed as cell growth at 10 uM by SRB assay

UO-31 [19] = test: Cytotoxicity against human UO31 cells by SRB assay; conditions: read-out: LC50 (the source's name)
cells [20] = conditions: Homo sapiens, CAKI
Description: Growth inhibition of human CAKI cells assessed as drug level required for 50% reduction in net protein increase by SRB assay relative to control

A549 [21] = test: Cytotoxicity against human A549 cells by SRB assay; conditions: read-out: LC50 (the source's name)
COLO 205 [22] = test: Cytotoxicity against human COLO205 cells by SRB assay; conditions: read-out: LC50 (the source's name)
SF-295 = test: cells; conditions: Homo sapiens
Description: Growth inhibition of human SF295 cells assessed as drug level required for 50% reduction in net protein increase by SRB assay relative to control

HCC 2998 [23] = test: cells; conditions: Homo sapiens
Description: Growth inhibition of human HCC2998 cells assessed as drug level required for 50% reduction in net protein increase by SRB assay relative to control

HCT-116 [24] = test: Cytotoxicity against human HCT116 cells by SRB assay; conditions: read-out: LC50 (the source's name)
SNB-19 [25] = test: cells; conditions: Homo sapiens
Description: Growth inhibition of human SNB19 cells assessed as drug level required for 50% reduction in net protein increase by SRB assay relative to control

HCC 2998 [26] = test: Cytotoxicity against human HCC2998 cells by SRB assay; conditions: read-out: LC50 (the source's name)
NCI-H322M [27] = test: cells; conditions: Homo sapiens
Description: Growth inhibition of human NCI-H322M cells assessed as drug level required for 50% reduction in net protein increase by SRB assay relative to control

HOP-62 [28] = test: Cytotoxicity against human HOP62 cells by SRB assay; conditions: read-out: LC50 (the source's name)
OVCAR-8 = test: Cytotoxicity against human OVCAR8 cells by SRB assay; conditions: read-out: LC50 (the source's name)
KM12 [29] = test: cells; conditions: Homo sapiens; remark: listed apart in the source
Description: Growth inhibition of human KM12 cells assessed as drug level required for 50% reduction in net protein increase by SRB assay relative to control

NCI-H322M [30] = test: cells; conditions: Homo sapiens; remark: listed apart in the source
Description: Growth inhibition of human NCI-H322M cells assessed as cell growth at 10 uM by SRB assay

MDA-MB-468 [31] = test: cells; conditions: Homo sapiens
Description: Growth inhibition of human MDA-MB-468 cells assessed as cell growth at 10 uM by SRB assay

SN12C = test: cells; conditions: Homo sapiens
Description: Growth inhibition of human SN12C cells assessed as cell growth at 10 uM by SRB assay

HCT-15 = test: cells; conditions: Homo sapiens
Description: Growth inhibition of human HCT15 cells assessed as cell growth at 10 uM by SRB assay

DU-145 [32] = test: cells; conditions: Homo sapiens
Description: Growth inhibition of human DU145 cells assessed as cell growth at 10 uM by SRB assay

DU-145 [33] = test: cells; conditions: Homo sapiens; remark: listed apart in the source
Description: Growth inhibition of human DU145 cells assessed as drug level required for 50% reduction in net protein increase by SRB assay relative to control

SK-OV-3 [34] = test: Cytotoxicity against human SKOV3 cells by SRB assay; conditions: read-out: LC50 (the source's name)
NCI-H226 = test: cells; conditions: Homo sapiens
Description: Growth inhibition of human NCI-H226 cells assessed as drug level required for 50% reduction in net protein increase by SRB assay relative to control

SK-OV-3 [35] = test: cells; conditions: Homo sapiens
Description: Growth inhibition of human SKOV3 cells assessed as cell growth at 10 uM by SRB assay

SF-268 [36] = test: cells; conditions: Homo sapiens; remark: listed apart in the source
Description: Growth inhibition of human SF268 cells assessed as cell growth at 10 uM by SRB assay

SR [37] = test: cells; conditions: Homo sapiens
Description: Growth inhibition of human SR cells assessed as drug level required for 50% reduction in net protein increase by SRB assay relative to control

K562 = test: Cytotoxicity against human K562 cells by SRB assay; conditions: read-out: LC50 (the source's name)
ACHN = test: cells; conditions: Homo sapiens
Description: Growth inhibition of human ACHN cells assessed as cell growth at 10 uM by SRB assay

MDA-MB-468 [38] = test: cells; conditions: Homo sapiens; remark: listed apart in the source
Description: Growth inhibition of human MDA-MB-468 cells assessed as drug level required for 50% reduction in net protein increase by SRB assay relative to control

SK-MEL-28 = test: cells; conditions: Homo sapiens
Description: Growth inhibition of human SK-MEL-28 cells assessed as cell growth at 10 uM by SRB assay

OVCAR-4 [39] = test: cells; conditions: Homo sapiens; remark: listed apart in the source
Description: Growth inhibition of human OVCAR4 cells assessed as drug level required for 50% reduction in net protein increase by SRB assay relative to control

HL-60(TB) [40] = test: cells; conditions: Homo sapiens; remark: listed apart in the source
Description: Growth inhibition of human HL-60(TB) cells assessed as cell growth at 10 uM by SRB assay

cells [41] = conditions: Homo sapiens, Hs-578T
Description: Growth inhibition of human Hs 578T cells assessed as cell growth at 10 uM by SRB assay

UACC-62 = test: cells; conditions: Homo sapiens
Description: Growth inhibition of human UACC62 cells assessed as drug level required for 50% reduction in net protein increase by SRB assay relative to control

SK-MEL-2 [42] = test: cells; conditions: Homo sapiens; remark: listed apart in the source
Description: Growth inhibition of human SK-MEL-2 cells assessed as drug level required for 50% reduction in net protein increase by SRB assay relative to control

786-0 = test: cells; conditions: Homo sapiens
Description: Growth inhibition of human 786-0 cells assessed as drug level required for 50% reduction in net protein increase by SRB assay relative to control

HCT-116 [43] = test: cells; conditions: Homo sapiens
Description: Growth inhibition of human HCT116 cells assessed as drug level required for 50% reduction in net protein increase by SRB assay relative to control

A549 [44] = test: cells; conditions: Homo sapiens
Description: Growth inhibition of human A549 cells assessed as cell growth at 10 uM by SRB assay

SW-620 [45] = test: cells; conditions: Homo sapiens; remark: listed apart in the source
Description: Growth inhibition of human SW620 cells assessed as cell growth at 10 uM by SRB assay

OVCAR-3 [46] = test: cells; conditions: Homo sapiens; remark: listed apart in the source
Description: Growth inhibition of human OVCAR-3 cells assessed as drug level required for 50% reduction in net protein increase by SRB assay relative to control

BT-549 = test: Cytotoxicity against human BT549 cells by SRB assay; conditions: read-out: LC50 (the source's name)
NCI-H460 [47] = test: cells; conditions: Homo sapiens
Description: Growth inhibition of human NCI-H460 cells assessed as drug level required for 50% reduction in net protein increase by SRB assay relative to control

SW-620 [48] = test: Cytotoxicity against human SW620 cells by SRB assay; conditions: read-out: LC50 (the source's name)
NCI-H460 [49] = test: cells; conditions: Homo sapiens; remark: listed apart in the source
Description: Growth inhibition of human NCI-H460 cells assessed as cell growth at 10 uM by SRB assay

HCT-116 [50] = test: cells; conditions: Homo sapiens; remark: listed apart in the source
Description: Growth inhibition of human HCT116 cells assessed as cell growth at 10 uM by SRB assay

## CCCCCCCC[N+](C)(CCCCCCCC)CCCCCCCC.O=S(=O)([N-]S(=O)(=O)C(F)(F)F)C(F)(F)F
KM12 [1]
  growth at 10 µM: -100%
SW-620 [2]
  GI50: 378 nM
OVCAR-5
  growth at 10 µM: -100%
MDA-MB-435
  CC50: 5700 nM
HT-29
  CC50: 5170 nM
COLO 205 [3]
  GI50: 292 nM
Malme-3M [4]
  growth at 10 µM: -94.1%
SK-MEL-5
  growth at 10 µM: -100%
SNB-19 [5]
  CC50: 8250 nM
MOLT-4
  growth at 10 µM: 37.4%
RPMI-8226
  growth at 10 µM: 44.2%
SR [6]
  CC50: 5130 nM
RXF 393
  GI50: 464 nM
UO-31 [7]
  growth at 10 µM: -100%
SF-268 [8]
  GI50: 493 nM
SK-MEL-2 [9]
  growth at 10 µM: -94.1%
COLO 205 [10]
  growth at 10 µM: -60.6%
SF-539
  GI50: 514 nM
OVCAR-3 [11]
  growth at 10 µM: -100%
SF-268 [12]
  CC50: 5500 nM
OVCAR-4 [13]
  CC50: 5800 nM
HOP-92
  GI50: 206 nM
OVCAR-4 [14]
  growth at 10 µM: -94.1%
Malme-3M [15]
  CC50: 4110 nM
UO-31 [16]
  GI50: 686 nM
HOP-62 [17]
  growth at 10 µM: -92.2%
A498
  GI50: 1820 nM
HL-60(TB) [18]
  GI50: 173 nM
M14
  growth at 10 µM: -91.7%
UO-31 [19]
  CC50: 5950 nM
Cells [20]
  GI50: 84 nM
A549 [21]
  CC50: 8580 nM
COLO 205 [22]
  CC50: > 100000 nM
SF-295
  GI50: 333 nM
HCC 2998 [23]
  GI50: 425 nM
HCT-116 [24]
  CC50: 9900 nM
SNB-19 [25]
  GI50: 587 nM
HCC 2998 [26]
  CC50: 6960 nM
NCI-H322M [27]
  GI50: 1810 nM
HOP-62 [28]
  CC50: 7770 nM
OVCAR-8
  CC50: 5880 nM
KM12 [29]
  GI50: 310 nM
NCI-H322M [30]
  growth at 10 µM: -100%
MDA-MB-468 [31]
  growth at 10 µM: -90.1%
SN12C
  growth at 10 µM: -86.5%
HCT-15
  growth at 10 µM: -75%
DU-145 [32]
  growth at 10 µM: -100%
DU-145 [33]
  GI50: 407 nM
SK-OV-3 [34]
  CC50: 5120 nM
NCI-H226
  GI50: 478 nM
SK-OV-3 [35]
  growth at 10 µM: -97.8%
SF-268 [36]
  growth at 10 µM: -100%
SR [37]
  GI50: 162 nM
K562
  CC50: 4860 nM
ACHN
  growth at 10 µM: -93.6%
MDA-MB-468 [38]
  GI50: 119 nM
SK-MEL-28
  growth at 10 µM: -100%
OVCAR-4 [39]
  GI50: 309 nM
HL-60(TB) [40]
  growth at 10 µM: 32%
Cells [41]
  growth at 10 µM: -66.7%
UACC-62
  GI50: 335 nM
SK-MEL-2 [42]
  GI50: 356 nM
786-0
  GI50: 415 nM
HCT-116 [43]
  GI50: 319 nM
A549 [44]
  growth at 10 µM: -100%
SW-620 [45]
  growth at 10 µM: -100%
OVCAR-3 [46]
  GI50: 315 nM
BT-549
  CC50: 4420 nM
NCI-H460 [47]
  GI50: 362 nM
SW-620 [48]
  CC50: 10000 nM
NCI-H460 [49]
  growth at 10 µM: -100%
HCT-116 [50]
  growth at 10 µM: -100%

## CCCCCCCCCCCCCCCCCCPCCCCCCCCCCCCCC (centres undefined) [MONO(OCTADECYL(TETRADECYL)PHOSPHONIUM) MONO(HEXAFLUOROPHOSPHATE(V)) MONO(TETRAFLUOROBORATE)]
KM12 [1]
  growth at 10 µM: -52.2%
SW-620 [2]
  GI50: 72 nM
OVCAR-5
  growth at 10 µM: -70%
MDA-MB-435
  CC50: > 100000 nM
HT-29
  CC50: > 100000 nM
COLO 205 [3]
  GI50: 243 nM
Malme-3M [4]
  growth at 10 µM: -61.6%
SK-MEL-5
  growth at 10 µM: -69.2%
SNB-19 [5]
  CC50: > 100000 nM
MOLT-4
  growth at 10 µM: 7.02%
RPMI-8226
  growth at 10 µM: 27.2%
SR [6]
  CC50: > 100000 nM
RXF 393
  GI50: 352 nM
UO-31 [7]
  growth at 10 µM: -44.8%
SF-268 [8]
  GI50: 88 nM
SK-MEL-2 [9]
  growth at 10 µM: -64.7%
COLO 205 [10]
  growth at 10 µM: -6.75%
SF-539
  GI50: 234 nM
OVCAR-3 [11]
  growth at 10 µM: -51%
SF-268 [12]
  CC50: > 100000 nM
OVCAR-4 [13]
  CC50: > 100000 nM
HOP-92
  GI50: 38 nM
OVCAR-4 [14]
  growth at 10 µM: -71.3%
Malme-3M [15]
  CC50: > 100000 nM
UO-31 [16]
  GI50: 398 nM
HOP-62 [17]
  growth at 10 µM: -65.6%
A498
  GI50: 472 nM
HL-60(TB) [18]
  GI50: 39 nM
M14
  growth at 10 µM: -67.2%
UO-31 [19]
  CC50: > 100000 nM
Cells [20]
  GI50: 350 nM
A549 [21]
  CC50: > 100000 nM
COLO 205 [22]
  CC50: > 100000 nM
SF-295
  GI50: 251 nM
HCC 2998 [23]
  GI50: 297 nM
HCT-116 [24]
  CC50: > 100000 nM
SNB-19 [25]
  GI50: 97 nM
HCC 2998 [26]
  CC50: > 100000 nM
NCI-H322M [27]
  GI50: 401 nM
HOP-62 [28]
  CC50: > 100000 nM
OVCAR-8
  CC50: > 100000 nM
KM12 [29]
  GI50: 59 nM
NCI-H322M [30]
  growth at 10 µM: -79.2%
MDA-MB-468 [31]
  growth at 10 µM: -62%
SN12C
  growth at 10 µM: -70.6%
HCT-15
  growth at 10 µM: -35.8%
DU-145 [32]
  growth at 10 µM: -54.3%
DU-145 [33]
  GI50: 357 nM
SK-OV-3 [34]
  CC50: > 100000 nM
NCI-H226
  GI50: 189 nM
SK-OV-3 [35]
  growth at 10 µM: -68.7%
SF-268 [36]
  growth at 10 µM: -49%
SR [37]
  GI50: 107 nM
K562
  CC50: > 100000 nM
ACHN
  growth at 10 µM: -58.9%
MDA-MB-468 [38]
  GI50: 53 nM
SK-MEL-28
  growth at 10 µM: -69.3%
OVCAR-4 [39]
  GI50: 125 nM
HL-60(TB) [40]
  growth at 10 µM: 24.9%
Cells [41]
  growth at 10 µM: -44.2%
UACC-62
  GI50: 61 nM
SK-MEL-2 [42]
  GI50: 81 nM
786-0
  GI50: 211 nM
HCT-116 [43]
  GI50: 84 nM
A549 [44]
  growth at 10 µM: 2.21%
SW-620 [45]
  growth at 10 µM: -43.8%
OVCAR-3 [46]
  GI50: 118 nM
BT-549
  CC50: > 100000 nM
NCI-H460 [47]
  GI50: 346 nM
SW-620 [48]
  CC50: > 100000 nM
NCI-H460 [49]
  growth at 10 µM: -41.9%
HCT-116 [50]
  growth at 10 µM: -13.1%
